Measured values reported in paper PMC7961380, “A Systematic Study of the In Vitro Pharmacokinetics and Estimated Human In Vivo Clearance of Indole and Indazole-3-Carboxamide Synthetic Cannabinoid Receptor Agonists Detected on the Illicit Drug Market” (Molecules, 2021).
“And” between values parts separate entries of the source, which are not always exact repeats. Equal entries are not always repeated. Where two headings read alike, the source gives them in different places.

Columns and labels:
[1] = system: pooled human cryopreserved hepatocytes (pHHeps); experiment: Metabolic stability, pooled human cryopreserved hepatocyte incubations; conditions: for Predicted In Vivo Hepatic Clearance, CLH: from pHHeps CLint, well-stirred model with plasma fu, Q 21 mL min^−1 kg^−1
[2] = as above; conditions: human, hepatocytes; for CLint scaled at 0.5 µM: Intrinsic clearance, pHHeps, alternative hepatocyte cell density 99x10^6 hepatocytes per gram liver; for half-life at 0.5 µM: T1/2 (min), pHHeps 0.25 million cells mL^−1, 0.5 µM, 37 °C, n ≥ 3 ± SD
[3] = Metabolic stability, pooled human liver microsome incubations; conditions: for Predicted In Vivo Hepatic Clearance, CLH: from pHLM CLint, well-stirred model with plasma fu, Q 21 mL min^−1 kg^−1; for CLint scaled at 0.5 µM / half-life at 0.5 µM: human, microsomes; for CLint scaled at 0.5 µM: pH 7.4, Intrinsic clearance; for half-life at 0.5 µM: pH 7.4, T1/2 (min), pHLM 0.5 mg mL^−1, 0.5 µM, NADPH, 37 °C; for half-life at 0.5 µM / Microsomal Intrinsic Clearance, CLint micr: n ≥ 3 ± SD
[4] = Plasma protein binding by equilibrium dialysis; format: in vitro ADME, human; conditions: for fraction unbound at 5 h, 10 µg mL^−1: human, pooled human plasma, pH 7.4, equilibrium dialysis 5 h, 37 °C
[5] = Short-term plasma stability with and without esterase inhibitors; conditions: 37 °C; for remaining at 3 h, 5 µM / remaining at 5 h: human, pH 7.4, Parent Compound Remaining (%)
[6] = pHHeps, 99x10^6 hepatocytes per gram liver
[7] = pHLM, alternative microsomal scaling factor 32 mg microsomal protein per gram liver
[8] = pHLM, alternative microsomal scaling factor 45 mg microsomal protein per gram liver
[9] = pHLM, scaling factor 32 mg microsomal protein per gram liver
[10] = pHLM, scaling factor 45 mg microsomal protein per gram liver
[11] = 10 µg mL^−1, read-out: PPB (%) (converted)
[12] = plasma, read-out: Fraction Unbound (fu)
[13] = Esterase Inhibitors, pH 7.4, BNPP and PMSF 500 µM each
[14] = plasma, No Esterase Inhibitors, pH 7.4, pooled human plasma

SMILES	Predicted In Vivo Hepatic Clearance, CLH [1]	Hepatic extraction ratio, EH ([1]; from pHHeps incubations)	Hepatic extraction ratio, EH [1, 6]	Predicted in vivo hepatic clearance, CLH [1, 6] [mL/min/kg]	% parent compound remaining, Average ([1]; pHHeps, 3 min) [%]	% parent compound remaining, Average ([1]; pHHeps, 6 min) [%]	% parent compound remaining, Average ([1]; pHHeps, 9 min) [%]	% parent compound remaining, Average ([1]; pHHeps, 15 min) [%]	% parent compound remaining, Average ([1]; pHHeps, 30 min) [%]	% parent compound remaining, Average ([1]; pHHeps, 45 min) [%]	% parent compound remaining, Average ([1]; pHHeps, 60 min) [%]	CLint scaled at 0.5 µM [2] [mL/min/kg]	half-life at 0.5 µM [2] [min]	Predicted In Vivo Hepatic Clearance, CLH [3] [mL/min/kg]	Hepatic extraction ratio, EH ([3]; from pHLM incubations)	CLint scaled at 0.5 µM [3, 7] [mL/min/kg]	CLint scaled at 0.5 µM [3, 8] [mL/min/kg]	half-life at 0.5 µM [3] [min]	% parent compound remaining, Average ([3]; pHLM, 3 min) [%]	% parent compound remaining, Average ([3]; pHLM, 6 min) [%]	other results
COC(=O)[C@@H](NC(=O)c1nn(Cc2ccc(F)cc2)c2ccccc12)C(C)C [(S)-AMB-FUBINACA (1), methyl [1-(4-fluorobenzyl)-1H-indazole-3-carbonyl]valinate]	15.52 ± 0.85 mL/min/kg	0.74 ± 0.041	0.72 ± 0.042	15.21 ± 0.88	37.0	18.7	14.7	6.2	1.4	1.1	0.8	2980	2.5 ± 0.55	15.27 ± 0.14	0.73 ± 0.006	1790	2520	0.6 ± 0.02	3.8	0.7	% parent compound remaining, Average ([3]; pHLM, 9 min): 0.2%; % parent compound remaining, Average ([3]; pHLM, 15 min): 0.1%; % parent compound remaining, Average ([3]; pHLM, 30 min): 0.3%; Microsomal Intrinsic Clearance, CLint micr ([3]; pHLM): 2.182 ± 0.071 mL min^−1 mg Microsomal Protein^−1; Hepatic extraction ratio, EH [3, 9]: 0.62 ± 0.008; Predicted in vivo hepatic clearance, CLH [3, 9]: 12.99 mL/min/kg; Predicted in vivo hepatic clearance, CLH [3, 10]: 14.60 mL/min/kg; recovery (total peak area in dialysed samples vs 4 °C samples) ([4]; PPB thermal stability control, 5 h): 77 ± 4.4%; fraction unbound at 5 h, 10 µg mL^−1 [4, 11]: 0.019; fraction unbound at 5 h, 10 µg mL^−1 [4, 12]: 0.019 ± 0.0008; Parent Compound Remaining (%), Esterase Inhibitors ([5]; 5 h, pH 7.4, BNPP and PMSF 500 µM each): 93.5 ± 0.1%; Parent Compound Remaining (%), No Esterase Inhibitors ([5]; 5 h, pH 7.4, pooled human plasma): 85.9 ± 4.0%; remaining at 3 h, 5 µM [5, 13]: 96.1 ± 1.6%; remaining at 5 h ([5]; Esterase Inhibitors, 5 h, pH 7.4, BNPP and PMSF 500 µM each): 94 ± 0.1%; remaining at 3 h, 5 µM [5, 14]: 96.6 ± 3.8%; remaining at 5 h ([5]; plasma, No Esterase Inhibitors, 5 h, pH 7.4, pooled human plasma): 86 ± 4%
C=CCCCn1cc(C(=O)N[C@H](C(=O)OC)C(C)(C)C)c2ccccc21 [(S)-MDMB-4en-PICA (12), methyl 3,3-dimethyl-2-[1-(pent-4-en-1-yl)-1H-indole-3-carboxamido]butanoate]	5.46 ± 0.78 mL/min/kg	0.26 ± 0.037	0.25	5.15	93.4	83.7	80.4	74.0	51.6	34.2	25.0	197	37 ± 6.9	5.69 ± 0.61	0.27 ± 0.029	137	192	8.5 ± 1.3	77.5	62.6	% parent compound remaining, Average ([3]; pHLM, 9 min): 50.2%; % parent compound remaining, Average ([3]; pHLM, 15 min): 28.5%; % parent compound remaining, Average ([3]; pHLM, 30 min): 5.6%; Microsomal Intrinsic Clearance, CLint micr ([3]; pHLM): 0.166 ± 0.024 mL min^−1 mg Microsomal Protein^−1; Hepatic extraction ratio, EH [3, 9]: 0.18 ± 0.022; Predicted in vivo hepatic clearance, CLH [3, 9]: 3.88 mL/min/kg; Hepatic extraction ratio, EH [3, 10]: 0.24 ± 0.027; Predicted in vivo hepatic clearance, CLH [3, 10]: 5.07 ± 0.57 mL/min/kg; fraction unbound at 5 h, 10 µg mL^−1 [4, 11]: 0.035; fraction unbound at 5 h, 10 µg mL^−1 [4, 12]: 0.035 ± 0.0031; remaining at 3 h, 5 µM [5, 13]: 89.4 ± 2.3%; remaining at 3 h, 5 µM [5, 14]: 91.5 ± 8.6%
C=CCCCn1nc(C(=O)N[C@H](C(=O)OC)C(C)(C)C)c2ccccc21 [(S)-MDMB-4en-PINACA (5), methyl 3,3-dimethyl-2-[1-(pent-4-en-1-yl)-1H-indazole-3-carboxamido] butanoate]	5.11 ± 0.89 mL/min/kg	0.24 ± 0.042	0.23	4.82	79.7	69.0	56.7	41.1	17.1	7.6	3.4	632	12 ± 2.6	2.66 ± 0.37	0.13 ± 0.018	186	262 ± 42.3	6.3 ± 1	72.3	52.7	% parent compound remaining, Average ([3]; pHLM, 9 min): 36.7%; % parent compound remaining, Average ([3]; pHLM, 15 min): 18.6%; % parent compound remaining, Average ([3]; pHLM, 30 min): 3.1%; Microsomal Intrinsic Clearance, CLint micr ([3]; pHLM): 0.226 ± 0.037 mL min^−1 mg Microsomal Protein^−1; Hepatic extraction ratio, EH [3, 9]: 0.08 ± 0.012; Predicted in vivo hepatic clearance, CLH [3, 9]: 1.71 mL/min/kg; Hepatic extraction ratio, EH [3, 10]: 0.11 ± 0.016; Predicted in vivo hepatic clearance, CLH [3, 10]: 2.32 ± 0.33 mL/min/kg; fraction unbound at 5 h, 10 µg mL^−1 [4, 11]: 0.01; fraction unbound at 5 h, 10 µg mL^−1 [4, 12]: 0.01 ± 0.0001; remaining at 3 h, 5 µM ([5]; plasma, Esterase Inhibitors, pH 7.4, BNPP and PMSF 500 µM each): 89 ± 3.3%; remaining at 3 h, 5 µM [5, 14]: 94.8 ± 0.7%
COC(=O)[C@@H](NC(=O)c1nn(Cc2ccc(F)cc2)c2ccccc12)C(C)(C)C [(S)-MDMB-FUBINACA (6)]	1.39 mL/min/kg and 1.39 ± 0.27 mL/min/kg	0.07 and 0.07 ± 0.013	0.06 ± 0.012	1.29 ± 0.25	90.3	73.3	80.1	73.3	38.8	17.3	9.1	275	26 ± 5	0.87 ± 0.18	0.04 ± 0.009	111	156	11 ± 2.4	70.2	64.2	% parent compound remaining, Average ([3]; pHLM, 9 min): 55.8%; % parent compound remaining, Average ([3]; pHLM, 15 min): 34.3%; % parent compound remaining, Average ([3]; pHLM, 30 min): 16.4%; Microsomal Intrinsic Clearance, CLint micr ([3]; pHLM): 0.135 ± 0.030 mL min^−1 mg Microsomal Protein^−1; Hepatic extraction ratio, EH [3, 9]: 0.03 ± 0.006; Predicted in vivo hepatic clearance, CLH [3, 9]: 0.54 ± 0.12 mL/min/kg; Hepatic extraction ratio, EH [3, 10]: 0.04 ± 0.008; Predicted in vivo hepatic clearance, CLH [3, 10]: 0.75 ± 0.16 mL/min/kg; fraction unbound at 5 h, 10 µg mL^−1 [4, 11]: 0.005; fraction unbound at 5 h, 10 µg mL^−1 [4, 12]: 0.005 ± 0.0008; remaining at 3 h, 5 µM [5, 13]: 91.6 ± 2.2%; remaining at 3 h, 5 µM [5, 14]: 94.2 ± 6.3%
